Source: patent US5270342A, “Acetamide derivatives” (Imperial Chemical Industries PLC, priority 1990, dated 1993)

Legend:
aldose reductase [1] = assay: reduction of sciatic nerve sorbitol in streptozotocin-diabetic rats (inhibition of aldose reductase in vivo); parameters: species or system rat; conditions: 5 daily oral doses of 3 mg/kg
Procedure: Rats are made diabetic (as evidenced by severe glucosuria being present) by dosing with streptozotocin. The animals are then dosed daily with the test compound for one, two or five days. The animals are then sacrificed 2-6 hours after the final dose and the eye lenses and/or sciatic nerves are removed. After a standard work-up procedure the residual sorbitol levels in each tissue are determined by gas liquid chromatography after conversion to the polytrimethylsilyl derivatives. Inhibition of aldose reductase in vivo can then be assessed by comparing the residual sorbitol levels in tissues from the dosed diabetic group of rats with those of an undosed group of diabetic rats and an undosed group of normal rats.
In a variation of the above test diabetic rats are dosed at a fixed daily oral dose for five days and then sacrificed 6 hours after the final dose and the reduction of sciatic nerve sorbitol assessed relative to that in control animals.

aldose reductase [2] = molecular target: T1, aldose reductase (Bos taurus, UniProt P16116); assay: inhibition in vitro of partially purified aldose reductase isolated from bovine lenses (spectrophotometric); type: biochemical; conditions: bovine lens aldose reductase
T1 construct: partially purified aldose reductase is isolated in known manner from bovine lenses; from tissue; host or cells: bovine lenses
Description: Thus, in a standard procedure partially purified aldose reductase is isolated in known manner from bovine lenses. The percentage inhibition of this enzyme's ability in vitro to catalyse the reduction of aldoses to polyhydric alcohols, and particularly to reduce glucose to sorbitol, caused by a test compound can then be determined using standard spectrophotometric methods.

IC50 (aldose reductase [2]): 118 nM
SMILES: Cc1cc(NC(=O)Cc2ccccc2)cc(C)c1S(=O)(=O)C[N+](=O)[O-] [Example 1, (2,6-dimethyl-4-[phenylacetamido]phenylsulfonyl)nitromethane]
reduction in sciatic nerve sorbitol levels (aldose reductase [1]): 83%
